Experimental data as given in patent publication US20220313656A1, “NEW CLASS OF ANTIBIOTICS HAVING LOW MIC-VALUES TOWARDS DIFFERENT STRAINS OF BACTERIA” (priority 2019, published 2022).

Experiments:
E. coli APEC O2 = assay: MIC, serial dilution method (CLSI); assay type: cell-based, Escherichia coli; conditions: Escherichia coli, APECO2, 24 h; read-out: MIC
Outline: (§1)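 Each determination was run twice. Bacteria, diluted 1:100 in Müller Hinton broth, were exposed to compound for 24 hours at 37° C without agitation, and the lowest concentration free of visible growth was recorded.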

E. faecium = assay: MIC, serial dilution method (CLSI); assay type: cell-based, Enterococcus faecium; conditions: Enterococcus faecium, 24 h; read-out: MIC
Outline: as §1

IPEC-J2 MDR1 cells = assay: Apical to basolateral transport across IPEC-J2 MDR1 cell monolayers; assay type: in vitro ADME
Method: To assess the permeability of the compounds, the apical to basolateral flux/permeability of different experimental compounds across monolayers of IPEC-J2 MDR1 cells seeded and cultured on Transwell supports was investigated.
The compounds were dissolved in ultra pure water (MilliQ) to a concentration of 1 mM and further diluted in HBSS supplemented with 0.05% BSA and 10 mM HEPES, pH 7.4 to a final concentration of 10 μM.
For transport experiments, IPEC-J2 cells were seeded onto to permeable supports (T12, Corning cci-3401) and cultured for 15-17 days. Culturemedium was changed every other day in both the apical and basolateral chamber. On the day of transport, the cells were equilibrated to ambient temperatures and the transepithelial electrical resistance (TEER) was measured across the cell monolayers. Subsequently, the cell layers were washed twice with HBSS and the TEER was measured again. The transport experiment was started by replacing the HBSS in the apical chamber with HBSS solutions of the four experimental compounds. Over a period of two hours samples of 100 μL where taken from the basolateral chamber at t=15, 30, 45, 60, 90 and 120 minutes. All samples were stored at −20° C. until analysis by means of HPLC-MS. All four compounds were tested in triplicate. After the transport study was stopped, the cell layers were washed twice with HBSS and the TEER was measured.

E. faecalis = assay: MIC, serial dilution method (CLSI); assay type: cell-based, Enterococcus faecalis; conditions: Enterococcus faecalis, 24 h; read-out: MIC
Outline: as §1

Streptococcus equi = assay: MIC, serial dilution method (CLSI); assay type: cell-based; conditions: 24 h, read-out: MIC
Outline: as §1

Salmonella enteritidis = assay: MIC, serial dilution method (CLSI); assay type: cell-based; conditions: Salmonella enterica, ENTERITIDIS, 24 h; read-out: MIC
Outline: as §1

Listeria monocytogenes = assay: MIC, serial dilution method (CLSI); assay type: cell-based; conditions: 24 h, read-out: MIC
Outline: as §1

Bacillus cereus = assay: MIC, serial dilution method (CLSI); assay type: cell-based; conditions: 24 h, read-out: MIC
Outline: as §1

S. aureus USA300 = assay: MIC, serial dilution method (CLSI); assay type: cell-based, Staphylococcus aureus; conditions: Staphylococcus aureus, USA300, 24 h; read-out: MIC
Outline: as §1

S. aureus CC398 = assay: MIC, serial dilution method (CLSI); assay type: cell-based, Staphylococcus aureus; conditions: Staphylococcus aureus, MRSA, 24 h; read-out: MIC
Outline: as §1

[1] = system: Staphylococus pseudintermedius; assay: MIC, serial dilution method (CLSI); assay type: cell-based, Staphylococcus pseudintermedius; conditions: Staphylococcus pseudintermedius, 24 h; read-out: MIC
Outline: as §1

Campylobacter jejuni = assay: MIC and MBC determination; assay type: cell-based; conditions: Clinical isolate
Method: (§2) MBC-value defines the antibiotic activities by the lowest concentration of the compound needed to kill at least 99.9% of the bacteria, also known as minimum bactericidal concentration (MBC) value.
(§3) The MIC for each compound for each bacteria strain was determined by the serial dilution method following the CLSI guidelines (CLSI Clinical and Laboratory Standards Institute: Performance Standards for Antimicrobial Susceptibility Testing: […] M100-S25. Wayne, Pa., USA; 2015.) All compounds were diluted in autoclaved H2O and stored at 4° C. […] Bacterial inoculums were prepared by inoculating 9 ml of H2O with bacterial colonies from agar plate (Oxoid, Roskilde Denmark) supplemented with bovine blood to a final yield a final density of 10^8 colony forming unit (CFU)/mL using a Sensititre™ Nephelometer (Thermo Scientific, Roskilde, Denmark). These inoculums were each in diluted 1:100 in Müller Hinton (MH) broth (Sigma, Copenhagen, Denmark). From the diluted inoculums 100 μl was transferred to each well in a 96-well plate and mixed with the compound to be MIC determined. The plate was incubated for 24 hours at 37° C. (without shaking). The MIC value was determined as the lowest concentration in which no bacterial growth could be visually detected. All MIC determinations were done in duplicates. […] Since all derivatives are new, no control strains (with reference MIC values) were available.

[2] = system: Staphylococcus epidermidis; assay: MIC and MBC determination; assay type: cell-based; conditions: Multiresistant clinical isolate
Method: as §2, §3

Cutibacterium acnes = assay: MIC and MBC determination; assay type: cell-based; conditions: Multiresistant clinical isolate
Method: as §2, §3

[3] = system: Staphylococcus aureus MRSA 43484; assay: Murine superficial MRSA skin infection model, topical treatment; assay type: in vivo; conditions: for reduction of the bacterial loads compared to vehicle treatment: topical twice daily for 3 days, day 4, Balb/C mice; for efficacy in the MRSA skin infection model: formulations at 1% and 2%, compared to vehicle
Method: This experiment is conducted to assess the effect of topical treatment of the compounds against MRSA. Compound S43 was evaluated for efficacy against Staphylococcus aureus MRSA 43484 in an murine skin infection model.
Treatment was performed twice daily for 3 days and sampling of skin biopsies was performed the day after last treatment. Treatment with Fucidic acid was included as a positive control and treatment with vehicle was included as a negative control.
48 Balb/C female mice—18-22 g—Taconic, Denmark, Staphylococcus aureus MRSA43484, Test compound A at 1 and 2% formulations, Test compound B at 2% formulation, Fucidin, 0.9% saline (sterile, SSI), 0.9% saline/Triton-x (sterile, SSI), Sterile water (SSI), 5% Horse Blood Agar plates (SSI), MRSA Brilliance agar plates, Nurofen® Junior (20 mg/ml, Novartis), Zoletil mix/Torbugesic (SSI/QC-BIO), Dermal curette—Miltex 335710.
Approximately 1 hour before inoculation, mice were treated orally with 45 μl nurofen (20 mg ibuprofen/ml corresponding to approximately […]) as pain relief. The mice were anaesthetized with 0.15 ml s.c. of Zoletil mix. The fur was removed from a 2×3-cm area on the back of each mouse by use of an electric shaver. Next, a razor was used to remove all the hair and hereafter the outer most layer of the skin was scraped off with a dermal curette to obtain a 1 cm^2 superficial skin lesion. 10 μl inoculum containing approximately 10^7 CFU was spread on the lesion. After the applied inoculum had dried, the mouse was placed in the cage and kept in a warming cabinet until fully awake.
Topical treatment of was initiated the day after inoculation, Day 1. Mice were treated twice daily (9 a.m and 3 p.m.) for three days. A volume of 50 μl was spread on the inoculated skin area.
Colony counts in the skin lesions were determined on day 1 (start of treatment) and day 4 (the day after completed treatment). The mice were sacrificed day 1 and 4 according to Table 1. The affected skin area was removed by a pair of scissors and tweezers, and collected in a tube for Dispomixer with 1 ml saline. The skin sample was homogenized in a Dispomixer. Each sample was serial diluted in saline/Triton-x and 20-μl spots were applied on MRSA Brillince agar plates. All agar plates were incubated 20-48 hrs at 35° C.

[4] = Maximum Tolerated Dose (MTD) in mice; assay type: in vivo; conditions: for tolerated dose: mice, observed 4-6 hrs
Method: This experiment is conducted to assess in vivo toxicity of the compounds. […] The study was performed at Statens Serum Institute. The Maximum Tolerated Dose (MTD) was investigated after intravenous (iv), intraperitonalt (ip) and peroral (po) dosing ranging from 5 mg/kg to 100 mg/kg.

Mutagenicity = conditions: data not shown
Method: The compound S43 was also assessed for mutagenicity.

Escherichia coli ESBL46 = assay: MIC, serial dilution method (CLSI); further: values in mg/L; assay type: cell-based; conditions: E. coli ESBL46, Tetracycline resistant; duplicates a/b
Outline: as §1

Escherichia coli ESBL10 = assay: MIC, serial dilution method (CLSI); further: values in mg/L; assay type: cell-based; conditions: E. coli ESBL10, Tetracycline resistant; duplicates a/b
Outline: as §1

Escherichia coli E6 = assay: MIC, serial dilution method (CLSI); further: values in mg/L; assay type: cell-based; conditions: E. coli E6, ESBL; duplicates a/b
Outline: as §1

Escherichia coli ESBL1 = assay: MIC, serial dilution method (CLSI); further: values in mg/L; assay type: cell-based; conditions: E. coli ESBL1, Tetracycline resistant; duplicates a/b
Outline: as §1

Escherichia coli E4 = assay: MIC, serial dilution method (CLSI); further: values in mg/L; assay type: cell-based; conditions: E. coli E4, ESBL; duplicates a/b
Outline: as §1

Escherichia coli E24 = assay: MIC, serial dilution method (CLSI); further: values in mg/L; assay type: cell-based; conditions: E. coli E24, ESBL; duplicates a/b
Outline: as §1

Escherichia coli ESBL37 = assay: MIC, serial dilution method (CLSI); further: values in mg/L; assay type: cell-based; conditions: E. coli ESBL37, Tetracycline resistant; duplicates a/b
Outline: as §1

Escherichia coli ESBL19 = assay: MIC, serial dilution method (CLSI); further: values in mg/L; assay type: cell-based; conditions: E. coli ESBL19, Tetracycline resistant; duplicates a/b
Outline: as §1

Escherichia coli ESBL28 = assay: MIC, serial dilution method (CLSI); further: values in mg/L; assay type: cell-based; conditions: E. coli ESBL28, Tetracycline resistant; duplicates a/b
Outline: as §1

Escherichia coli E38 = assay: MIC, serial dilution method (CLSI); further: values in mg/L; assay type: cell-based; conditions: E. coli E38, ESBL; duplicates a/b
Outline: as §1

Escherichia coli E5 = assay: MIC, serial dilution method (CLSI); further: values in mg/L; assay type: cell-based; conditions: E. coli E5, ESBL; duplicates a/b
Outline: as §1

SMILES	MIC (E. coli APEC O2) [µg/mL]	MIC (E. faecium) [µg/mL]	permeability across IPEC-J2 MDR1 cell monolayers (IPEC-J2 MDR1 cells)	MIC (E. faecalis) [µg/mL]	MIC (Streptococcus equi) [µg/mL]	MIC (Salmonella enteritidis) [µg/mL]	MIC (Listeria monocytogenes) [µg/mL]	MIC (Bacillus cereus) [µg/mL]	MIC (S. aureus USA300) [µg/mL]	MIC (S. aureus CC398) [µg/mL]	MIC [1] [µg/mL]	also measured
CC[N+]1(C)CCCCC1CCN1c2ccccc2Sc2ccc(SC)cc21.[Br-] (stereo not drawn) [Compound S25, 1-ethyl-1-methyl-2-(2-(2-(methylthio)-10H-phenothiazin-10-yl)ethyl)piperidin-1-ium bromide]	256	8	low	8	2	256	2	2	2	4	2	–
CCCCC[N+]1(C)CCCCC1CCN1c2ccccc2Sc2ccc(SC)cc21.[Br-] (stereo not drawn) [Compound S28, 1-methyl-2-(2-(2-(methylthio)-10H-phenothiazin-10-yl)ethyl)-1-pentylpiperidin-1-ium bromide]	64	2	low	4	2	64	2	2	2	2	4	–
CSc1ccc2c(c1)N(CCC1CCCC[N+]1(C)CCC(C)C)c1ccccc1S2.[Br-] (stereo not drawn) [Compound S27, 1-isopentyl-1-methyl-2-(2-(2-(methylthio)-10H-phenothiazin-10-yl)ethyl)piperidin-1-ium bromide]	128	4	low	4	2	128	2	4	2	2	2	–
CC(C)=CCCC(C)CC[N+](C)(C)CCCN1c2ccccc2Sc2ccccc21.Cc1ccc(S(=O)(=O)[O-])cc1 (stereo not drawn) [Compound S43, N-(3-(10H-phenothiazin-10-yl)propyl)-N,N,3,7-tetramethyloct-6-en-1-aminium 4-methylbenzenesulfonate]	–	–	–	–	–	–	–	–	2	–	–	MBC (Campylobacter jejuni): 1 µg/mL; MIC (Campylobacter jejuni): 1 µg/mL; MBC [2]: 2 µg/mL; MIC [2]: 2 µg/mL; MBC (Cutibacterium acnes): 1 µg/mL; MIC (Cutibacterium acnes): 1 µg/mL; reduction of the bacterial loads compared to vehicle treatment ([3]; 1% formulation): 3.0 log10 CFU; reduction of the bacterial loads compared to vehicle treatment ([3]; 2% formulation): 3.7 log10 CFU; efficacy in the MRSA skin infection model ([3]; 4-methylbenzenesulfonate): significant reduction of the bacterial loads; efficacy in the MRSA skin infection model ([3]; listed as 43, 4-methylbenzenesulfonate): highly effective; tolerability ([4]; mice dosed twice po with 100 mg/kg): no signs of discomfort; tolerated dose ([4]; ip dosing): up to 10 mg/kg; tolerated dose ([4]; iv dosing): up to 10 mg/kg; mutagenic potential (Mutagenicity): did not show indications of mutagenic potential
CN(C)CCCN1c2ccccc2Sc2ccc(Cl)cc21.Cl [Compound S1, 3-(2-chloro-10H-phenothiazin-10-yl)-N,N-dimethylpropan-1-amine hydrochloride, reference compound]	64	32	–	64	16	64	32	64	64	32	32	MIC (Escherichia coli ESBL46): 32/32; MIC (Escherichia coli ESBL10): 64/64; MIC (Escherichia coli E6): 32/32; MIC (Escherichia coli ESBL1): 32/64; MIC (Escherichia coli E4): 64/64; MIC (Escherichia coli E24): 64/32; MIC (Escherichia coli ESBL37): 32/32; MIC (Escherichia coli ESBL19): 32/32; MIC (Escherichia coli ESBL28): 32/32; MIC (Escherichia coli E38): 64/32; MIC (Escherichia coli E5): 32/32
